Measured values from patent US12501900B2, “Heterocyclyl pyridazine as fungicidal compounds” (Bayer Aktiengesellschaft, priority 2018, dated 2025).

Legend:
[1] = system: Colletotrichum lindemuthianum; assay: Colletotrichum lindemuthianum in vitro cell test; format: cell-based; details: 144 h, 20 ppm of active ingredient, liquid culture, 6 days incubation, read-out: efficacy (inhibition of fungal growth)
Method: (§1) Example: Colletotrichum lindemuthianum In Vitro Cell Test • Solvent: DMSO • Culture medium: 14.6 g anhydrous D-glucose (VWR), 7.1 g Mycological Peptone (Oxoid), 1.4 g granulated Yeast Extract (Merck), QSP 1 liter • Inoculum: spores suspension Fungicides were solubilized in DMSO and the solution used to prepare the required range of concentrations. The final concentration of DMSO used in the assay was ≤1%. A spore suspension of C. lindemuthianum was prepared and diluted to the desired spore density. Fungicides were evaluated for their ability to inhibit spores germination and mycelium growth in liquid culture assay. The compounds were added in the desired concentration to the culture medium with spores. After 6 days incubation, fungi-toxicity of compounds was determined by spectrometric measurement of mycelium growth. Inhibition of fungal growth was determined by comparing the absorbance values in wells containing the fungicides with the absorbance in control wells without fungicides.

Septoria tritici [2] = assay: Septoria tritici in vitro cell test; format: cell-based; details: Zymoseptoria tritici, 168 h; 20 ppm of active ingredient; liquid culture, 7 days incubation; read-out: efficacy (inhibition of fungal growth)
Method: Example: Septoria tritici In Vitro Cell Test • Solvent: DMSO • Culture medium: 14.6 g anhydrous D-glucose (VWR), 7.1 g Bacteriological Peptone (Oxoid), • 1.4 g granulated Yeast Extract (Merck), QSP 1 liter • Inoculum: spore suspension Fungicides were solubilized in DMSO and the solution used to prepare the required range of concentrations. The final concentration of DMSO used in the assay was ≤1%. A spore suspension of Septoria tritici was prepared and diluted to the desired spore density. Fungicides were evaluated for their ability to inhibit spore germination and mycelium growth in liquid culture assay. The compounds were added in the desired concentration to the culture medium with spores. After 7 days incubation, fungi-toxicity of compounds was determined by spectrometric measurement of mycelium growth. Inhibition of fungal growth was determined by comparing the absorbance values in wells containing the fungicides with the absorbance in control wells without fungicides.

[3] = Measurement of LogP values by HPLC on reversed phase columns (EEC directive 79/831 Annex V.A8), methods [a], [b], [c]; format: physicochemical; details: HPLC on reversed phase column, method [a]; read-out: Log P
Method: Measurement of Log P values as provided herein was performed according to EEC directive 79/831 Annex V.A8 by HPLC (High Performance Liquid Chromatography) on reversed phase columns with the following methods: • ^[a]
If more than one Log P value is available within the same method, all the values are given and separated by “+”.
Lambda-max-values were determined using UV-spectra from 200 nm to 400 nm and the peak values of the chromatographic signals

Alternaria brassicae = assay: In vivo preventive test on Alternaria brassicae (leaf spot on radish or cabbage); details: 144 h, 500 ppm of active ingredient, preventive spray on radish or cabbage, evaluated 6 days after inoculation, read-out: efficacy
Method: Example: In Vivo Preventive Test on Alternaria brassicae (Leaf Spot on Radish or Cabbage)
(§2) • Solvent: 5% by volume of Dimethyl sulfoxide • 10% by volume of Acetone • Emulsifier: 1 μl of Tween® 80 per mg of active ingredient
(§3) The active ingredients were made soluble and homogenized in a mixture of Dimethyl sulfoxide/Acetone//Tween®80 and then diluted in water to the desired concentration.
The young plants of radish or cabbage were treated by spraying the active ingredient prepared as described above. Control plants were treated only with an aqueous solution of Acetone/Dimethyl sulfoxide/Tween® 80.
After 24 hours, the plants were contaminated by spraying the leaves with an aqueous suspension of Alternaria brassicae spores. The contaminated radish or cabbage plants were incubated for 6 days at 20° C. and at 100% relative humidity.
The test was evaluated 6 days after the inoculation. 0% means an efficacy which corresponds to that of the control plants while an efficacy of 100% means that no disease was observed.

Alternaria alternata = Alternaria alternata in vitro cell test; format: cell-based; details: 120 h, 20 ppm of active ingredient, liquid culture, 5 days incubation, read-out: efficacy (inhibition of fungal growth)
Method: as §1, with “Example: Alternaria alternata” for “Example: Colletotrichum lindemuthianum”, “of A. alternata” for “of C. lindemuthianum”, “inhibit spore” for “inhibit spores”, “After 5” for “After 6”

Botrytis cinerea = assay: In vivo preventive test on Botrytis cinerea (grey mould); details: 500 ppm of active ingredient, preventive spray on gherkin or cabbage, evaluated 4 to 5 days after inoculation, read-out: efficacy
Method: Example: In Vivo Preventive Test on Botrytis cinerea (Grey Mould)
as §2, §3
The young plants of gherkin or cabbage were treated by spraying the active ingredient prepared as described above. Control plants were treated only with an aqueous solution of Acetone/Dimethyl sulfoxide/Tween® 80.
After 24 hours, the plants were contaminated by spraying the leaves with an aqueous suspension of Botrytis cinerea spores. The contaminated gherkin plants were incubated for 4 to 5 days at 17° C. and at 90% relative humidity. The contaminated cabbage plants were incubated for 4 to 5 days at 20° C. and at 100% relative humidity.
The test was evaluated 4 to 5 days after the inoculation. 0% means an efficacy which corresponds to that of the control plants while an efficacy of 100% means that no disease was observed.

[4] = system: Colletotrichum lindemuthianum; assay: In vivo preventive test on Colletotrichum lindemuthianum (leaf spot on bean); details: 168 h, 500 ppm of active ingredient, preventive spray on bean, evaluated 7 days after inoculation, read-out: efficacy
Method: Example: In Vivo Preventive Test on Colletotrichum lindemuthianum (Leaf Spot on Bean)
as §2, §3
The young plants of bean were treated by spraying the active ingredient prepared as described above. Control plants were treated only with an aqueous solution of Acetone/Dimethyl sulfoxide/Tween® 80.
After 24 hours, the plants were contaminated by spraying the leaves with an aqueous suspension of Colletotrichum lindemuthianum spores. The contaminated bean plants were incubated for 24 hours at 20° C. and at 100% relative humidity and then for 6 days at 20° C. and at 90% relative humidity.
The test was evaluated 7 days after the inoculation. 0% means an efficacy which corresponds to that of the control plants while an efficacy of 100% means that no disease was observed.

Sphaerotheca fuliginea = assay: In vivo preventive test on Sphaerotheca fuliginea (powdery mildew on cucurbits); details: Podosphaera fuliginea, 192 h; 500 ppm of active ingredient; preventive spray on gherkin; evaluated 8 days after inoculation; read-out: efficacy
Method: Example: In Vivo Preventive Test on Sphaerotheca fuliginea (Powdery Mildew on Cucurbits)
as §2, §3
The young plants of gherkin were treated by spraying the active ingredient prepared as described above. Control plants were treated only with an aqueous solution of Acetone/Dimethyl sulfoxide/Tween® 80.
After 24 hours, the plants were contaminated by spraying the leaves with an aqueous suspension of Sphaerotheca fuliginea spores. The contaminated gherkin plants were incubated for 8 days at 20° C. and at 70-80% relative humidity.
The test was evaluated 8 days after the inoculation. 0% means an efficacy which corresponds to that of the control plants while an efficacy of 100% means that no disease was observed.

Pyrenophora teres = assay: In vivo preventive test on Pyrenophora teres (net blotch on barley); details: 240 h, 500 ppm of active ingredient, preventive spray on barley, evaluated 10 days after inoculation, read-out: efficacy
Method: Example: In Vivo Preventive Test on Pyrenophora teres (Net Blotch on Barley)
as §2, §3
The young plants of barley were treated by spraying the active ingredient prepared as described above. Control plants were treated only with an aqueous solution of Acetone/Dimethyl sulfoxide/Tween®80.
After 24 hours, the plants were contaminated by spraying the leaves with an aqueous suspension of Pyrenophora teres spores. The contaminated barley plants were incubated for 48 hours at 20° C. and at 100% relative humidity and then for 8 days at 20° C. and at 70-80% relative humidity.
The test was evaluated 10 days after the inoculation. 0% means an efficacy which corresponds to that of the control plants while an efficacy of 100% means that no disease was observed.

Septoria tritici [5] = assay: In vivo preventive test on Septoria tritici (leaf spot on wheat); details: Zymoseptoria tritici, in Triticum aestivum; 500 ppm of active ingredient; preventive spray on wheat; evaluated 19 days after inoculation; read-out: efficacy
Method: Example: In Vivo Preventive Test on Septoria tritici (Leaf Spot on Wheat)
as §2, §3
The young plants of wheat were treated by spraying the active ingredient prepared as described above. Control plants were treated only with an aqueous solution of Acetone/Dimethyl sulfoxide/Tween®80.
After 24 hours, the plants were contaminated by spraying the leaves with an aqueous suspension of Septoria tritici spores. The contaminated wheat plants were incubated for 72 hours at 17° C. and at 100% relative humidity and then for 15 days at 20° C. and at 90% relative humidity.
The test was evaluated 19 days after the inoculation. 0% means an efficacy which corresponds to that of the control plants while an efficacy of 100% means that no disease was observed.

SMILES	inhibition at 20 ppm [1] [%]	inhibition at 20 ppm (Septoria tritici [2]) [%]	chromatographic logP [3]	pest or weed control at 500 ppm (Alternaria brassicae) [%]	inhibition at 20 ppm (Alternaria alternata) [%]	pest or weed control at 500 ppm (Botrytis cinerea) [%]	pest or weed control at 500 ppm [4] [%]	pest or weed control at 500 ppm (Sphaerotheca fuliginea) [%]	pest or weed control at 500 ppm (Pyrenophora teres) [%]	pest or weed control at 500 ppm (Septoria tritici [5]) [%]
FC(F)(F)c1cccc(Oc2nnc(Cl)cc2C2=NCC(Cc3ccc(Cl)cc3Cl)N2)c1 (racemic) [I-007, 6-chloro-4-[rac-5-[(2,4-dichlorophenyl)methyl]-4,5-dihydro-1H-imidazol-2-yl]-3-[3-(trifluoromethyl)phenoxy]pyridazine]	90 to 100	90 to 100	2.39	90 to 100	90 to 100	90 to 100	–	–	–	–
Cc1cc(C2=NOCC(c3cn(C)c4ccccc34)N2)c(Oc2cccc(C(F)(F)F)c2)nn1 (racemic) [I-011, rac-5-(1-methylindol-3-yl)-3-[6-methyl-3-[3-(trifluoro-methyl)phenoxy]pyridazin-4-yl]-5,6-dihydro-4H-1,2,4-oxadiazine]	90 to 100	90 to 100	3.23	90 to 100	90 to 100	90 to 100	80 to 89	90 to 100	70 to 79	–
CC(=O)c1cc(C2=NOCC(Cc3ccc(C)cc3C)N2)c(Oc2cccc(C(F)(F)F)c2)nn1 (racemic) [I-042, 1-[5-[rac-5-[(2,4-dimethylphenyl)methyl]-5,6-dihydro-4H-1,2,4-oxadiazin-3-yl]-6-[3-(trifluoromethyl)phenoxy]pyridazin-3-yl]ethanone]	90 to 100	–	4.27	90 to 100	90 to 100	90 to 100	90 to 100	90 to 100	90 to 100	90 to 100
Cc1ccc(CC2CON=C(c3cc(Cl)nnc3Oc3cccc(C(F)(F)F)c3)N2)c(C)c1 (racemic) [I-059, rac-3-[6-chloro-3-[3-(trifluoromethyl)phenoxy]pyridazin-4-yl]-5-[(2,4-dimethylphenyl)methyl]-5,6-dihydro-4H-1,2,4-oxadiazine]	90 to 100	90 to 100	–	90 to 100	90 to 100	90 to 100	90 to 100	90 to 100	90 to 100	90 to 100
Cc1ccc(CC2CON=C(c3c(Oc4cccc(C(F)(F)F)c4)nnc(Cl)c3-c3ccncc3)N2)c(C)c1 (racemic) [I-088, rac-3-[6-chloro-5-(4-pyridyl)-3-[3-(trifluoro-methyl)phenoxy]pyridazin-4-yl]-5-[(2,4-dimethylphenyl)methyl]-5,6-dihydro-4H-1,2,4-oxadiazine]	90 to 100	–	3.76	90 to 100	90 to 100	90 to 100	90 to 100	90 to 100	90 to 100	70 to 79
Cc1ccc(CC2CNN=C(c3cc(Cl)nnc3Oc3cccc(C(F)(F)F)c3)N2)c(C)c1 (racemic) [I-173, rac-3-[6-chloro-3-[3-(trifluoromethyl)phenoxy]pyridazin-4-yl]-5-[(2,4-dimethylphenyl)methyl]-1,4,5,6-tetrahydro-1,2,4-triazine]	90 to 100	–	3.31	90 to 100	90 to 100	90 to 100	90 to 100	90 to 100	90 to 100	–
FC(F)(F)c1cccc(Oc2nnc(Cl)cc2C2=NOC[C@H](Cc3ccccc3)N2)c1 (single isomer, unassigned) [I-070]	90 to 100	80 to 89	3.81	90 to 100	90 to 100	90 to 100	90 to 100	90 to 100	90 to 100	–
